Data published in paper PMC11428815, “Characterization of Novel SARM1 Inhibitors for the Treatment of Chemotherapy-Induced Peripheral Neuropathy” (Biomedicines, 2024).

Tested on: T1, SARM1 TIR domain (DmrB–TIR)
T1 construct: the SARM1 TIR domain was constructed into an Fkbp variant (DmrB); expressed in transfected cells; host or cells: 293T cells
Test: DmrB–TIR dimerization (AP20187)-induced cell death in 293T cells
Assay type: cell-based
Settings: 24 h after AP20187 addition
Description: To verify the inhibitory mechanism of SARM1 owing to the TIR domain, the SARM1 TIR domain was constructed into an Fkbp variant (DmrB) at its N terminus, which undergoes homodimerization in the presence of AP20187 (a rapamycin analog) (Figure 2A).
Figure 2 Design and characterization of the toxic effects of the SARM1 TIR domain in 293T cells using different compounds. (A) Scheme for TIR dimerization to verify the TIR domain using an Frb–Fkbp moiety fusion. (B) Compounds used and NR display prevention of DmrB–TIR-dependent death 24 h after AP20187 addition.

Compound: NC(=O)c1ccc[n+]([C@@H]2O[C@H](CO)[C@@H](O)[C@H]2O)c1 [NR]
- prevention of DmrB–TIR-dependent cell death (cell viability): cell death caused by TIR dimerization was alleviated
